Values of other authors, collected in patent publication US20070258969A1, “Compositions and methods for targeting metastatic tumors using multivalent ligand-linked carbohydrate polymers” (priority 2004, published 2007).

What was measured:
B16 melanoma cells = details: in vivo
L-1 sarcoma cells = details: in vivo

## CC(=O)N[C@H]1[C@H](O[C@H]2[C@@H](O)[C@@H](CO)O[C@@H](O[C@H]3[C@H](O)[C@@H](O)C(O)O[C@@H]3CO)[C@@H]2O)O[C@H](CO)[C@@H](O)[C@@H]1O[C@@H]1O[C@H](CO)[C@H](O)[C@H](O)[C@H]1O (stereo partly shown) [lacto-N-tetrose]
B16 melanoma cells
  metastasis of B16 melanoma cells: inhibit metastasis

## CO[C@H]1O[C@H](CO)[C@@H](O[C@@H]2O[C@H](CO)[C@H](O)[C@H](O)[C@H]2O)[C@H](O)[C@H]1O [methyl-α-D-lactoside]
B16 melanoma cells
  metastasis of B16 melanoma cells: inhibit metastasis

## O=C[C@H](O)[C@@H](O)[C@@H](O)[C@H](O)CO [D-galactose]
L-1 sarcoma cells
  liver metastasis of L-1 sarcoma cells: inhibited liver metastasis

## arabinogalactose
L-1 sarcoma cells
  liver metastasis of L-1 sarcoma cells: inhibited liver metastasis
